Drawing on ChEMBL document CHEMBL3621109, “Probing Mechanisms of CYP3A Time-Dependent Inhibition Using a Truncated Model System” (ACS Med Chem Lett, 2015), this text covers IC50 for four molecules.

Broadly, the IC50 is the point on the concentration scale where inhibition reaches its midpoint. A higher IC50 goes with weaker potency.

Assay [1] in a line: Inhibition of CYP3A (unknown origin) using testosterone as substrate. Format: ADME, Homo sapiens.
Assay [2] in a line: Inhibition of CYP3A (unknown origin) using midazolam as substrate. Format: ADME, Homo sapiens.

With `Cn1ncc(NC(=O)c2ccccc2)c1N1CC[C@H](N)CC(F)(F)C1`, the IC50 in assay [1] stood at 4300 nM; in assay [2], 5 µM.
For `Cn1ncc(NC(=O)OCc2ccccc2)c1N1CC[C@H](N)CC(F)(F)C1`, in that order: 2500 nM and 7.7 µM.
Taken in the same sequence, the figures for `Cn1ncc(NC(=O)c2ccccc2)c1N1CCCCC(F)(F)C1` were 1700 nM and 0.84 µM.
Consider `Cn1ncc(NC(=O)c2ccccc2)c1N1CCC(O)CC(F)(F)C1` (racemic), for which, in assay [2], the IC50 is > 10 µM.
